Test results published in ChEMBL document CHEMBL3885861, “Open TG-GATES”.

Organism: Rattus norvegicus
Assay: Open TG-GATES - Regimen: Single
Type: toxicity, organism-based, Sprague-Dawley
Set-up: regimen Single, gender Male, age 6 weeks
Conditions: in vivo, iv, route intravenous injection; for LIVER: tissue Liver; for A/G / ALP / ALT / AST / BUN / CRE / Ca / Cl / DBIL / GLC / IP / K / LDH / Na / PL / RALB / TBIL / TC / TG / TP / gamma-GTP: tissue Plasma; for APTT / Bas / Eos / Fbg / Hb / Ht / Lym / MCH / MCHC / MCV / Mono / Neu / PT / Plat / RBC / Ret / WBC: tissue Blood; for KIDNEY_L / KIDNEY_R / KIDNEY_TOTAL: tissue Kidney
[1] = 2 mg/kg, 3 h, dose level Middle
[2] = 2 mg/kg, 6 h, dose level Middle

Work on C[C@@H]1[C@H](O)[C@@H](C)/C=C/C=C/C=C/C=C/C=C/C=C/C=C/[C@H](O[C@@H]2O[C@H](C)[C@@H](O)[C@H](N)[C@@H]2O)C[C@@H]2O[C@](O)(C[C@@H](O)C[C@@H](O)[C@H](O)CC[C@@H](O)C[C@@H](O)CC(=O)O[C@H]1C)C[C@H](O)[C@H]2C(=O)O [AMPHOTERICIN B] yielded an LIVER (1 mg/kg, 9 h, dose level Low) of 8.4 g, an A/G (1 mg/kg, 9 h, dose level Low) of 0.8 and an ALP (1 mg/kg, 9 h, dose level Low) of 1344.2 IU/L. For the same compound, the ALT (1 mg/kg, 9 h, dose level Low) was 33 IU/L, the AST (1 mg/kg, 9 h, dose level Low) was 85 IU/L and the BUN (1 mg/kg, 9 h, dose level Low) was 16.6 mg/dL. It also gave a CRE (1 mg/kg, 9 h, dose level Low) of 0.1 mg/dL, a Ca (1 mg/kg, 9 h, dose level Low) of 10.6 mg/dL and a Cl (1 mg/kg, 9 h, dose level Low) of 106.6 meq/L. The DBIL (1 mg/kg, 9 h, dose level Low) was 0.012 mg/dL, the GLC (1 mg/kg, 9 h, dose level Low) was 161.4 mg/dL and the IP (1 mg/kg, 9 h, dose level Low) was 10.2 mg/dL. The K (1 mg/kg, 9 h, dose level Low) was 3.8 meq/L, the LDH (1 mg/kg, 9 h, dose level Low) was 53.6 IU/L and the Na (1 mg/kg, 9 h, dose level Low) was 142.8 meq/L. For the same compound, the PL (1 mg/kg, 9 h, dose level Low) was 122.8 mg/dL, the RALB (1 mg/kg, 9 h, dose level Low) was 2.5 g/dL and the TBIL (1 mg/kg, 9 h, dose level Low) was 0.07 mg/dL. The TC (1 mg/kg, 9 h, dose level Low) was 75.8 mg/dL, the TG (1 mg/kg, 9 h, dose level Low) was 31.4 mg/dL and the TP (1 mg/kg, 9 h, dose level Low) was 5.6 g/dL. The gamma-GTP (1 mg/kg, 9 h, dose level Low) was 1.6 IU/L, the TERMINAL_BW (1 mg/kg, 24 h, dose level Low) was 224.5 g and the APTT (1 mg/kg, 24 h, dose level Low) was 14.8 s. For the same compound, the Bas (1 mg/kg, 24 h, dose level Low) was 0%, the Eos (1 mg/kg, 24 h, dose level Low) was 1% and the Fbg (1 mg/kg, 24 h, dose level Low) was 286.6 mg/dL. For the same compound, the Hb (1 mg/kg, 24 h, dose level Low) was 13.3 g/dL, the Ht (1 mg/kg, 24 h, dose level Low) was 39.7% and the Lym (1 mg/kg, 24 h, dose level Low) was 79.8%. It also gave an MCH (1 mg/kg, 24 h, dose level Low) of 21.2 pg, an MCHC (1 mg/kg, 24 h, dose level Low) of 33.6% and an MCV (1 mg/kg, 24 h, dose level Low) of 63.1 fL. For the same compound, the Mono (1 mg/kg, 24 h, dose level Low) was 2.2%, the Neu (1 mg/kg, 24 h, dose level Low) was 16.6% and the PT (1 mg/kg, 24 h, dose level Low) was 12 s. For the same compound, the Plat (1 mg/kg, 24 h, dose level Low) was 135.9 x10_4/uL, the RBC (1 mg/kg, 24 h, dose level Low) was 628.6 x10_4/ul and the Ret (1 mg/kg, 24 h, dose level Low) was 7.1%. The WBC (1 mg/kg, 24 h, dose level Low) was 100.8 x10_2/uL, the KIDNEY_L (1 mg/kg, 24 h, dose level Low) was 1 g and the KIDNEY_R (1 mg/kg, 24 h, dose level Low) was 1 g. The KIDNEY_TOTAL (1 mg/kg, 24 h, dose level Low) was 1.9 g, the LIVER (1 mg/kg, 24 h, dose level Low) was 10.5 g and the A/G (1 mg/kg, 24 h, dose level Low) was 0.8. The ALP (1 mg/kg, 24 h, dose level Low) was 1710.6 IU/L, the ALT (1 mg/kg, 24 h, dose level Low) was 39.8 IU/L and the AST (1 mg/kg, 24 h, dose level Low) was 67.8 IU/L. For the same compound, the BUN (1 mg/kg, 24 h, dose level Low) was 17.2 mg/dL, the CRE (1 mg/kg, 24 h, dose level Low) was 0.2 mg/dL and the Ca (1 mg/kg, 24 h, dose level Low) was 11 mg/dL. For the same compound, the Cl (1 mg/kg, 24 h, dose level Low) was 105.6 meq/L, the DBIL (1 mg/kg, 24 h, dose level Low) was 0.02 mg/dL and the GLC (1 mg/kg, 24 h, dose level Low) was 161.8 mg/dL. It also gave an IP (1 mg/kg, 24 h, dose level Low) of 8.2 mg/dL, a K (1 mg/kg, 24 h, dose level Low) of 3.9 meq/L and an LDH (1 mg/kg, 24 h, dose level Low) of 50.4 IU/L. It also gave a Na (1 mg/kg, 24 h, dose level Low) of 144 meq/L, a PL (1 mg/kg, 24 h, dose level Low) of 143.8 mg/dL and an RALB (1 mg/kg, 24 h, dose level Low) of 2.7 g/dL. The TBIL (1 mg/kg, 24 h, dose level Low) was 0.056 mg/dL, the TC (1 mg/kg, 24 h, dose level Low) was 79.4 mg/dL and the TG (1 mg/kg, 24 h, dose level Low) was 92.2 mg/dL. It also gave a TP (1 mg/kg, 24 h, dose level Low) of 5.8 g/dL, a gamma-GTP (1 mg/kg, 24 h, dose level Low) of 1.8 IU/L and a TERMINAL_BW [1] of 220.8 g. For the same compound, the APTT [1] was 17.1 s, the Bas [1] was 0% and the Eos [1] was 1%. For the same compound, the Fbg [1] was 283 mg/dL, the Hb [1] was 13.7 g/dL and the Ht [1] was 38.4%. For the same compound, the Lym [1] was 69%, the MCH [1] was 20.9 pg and the MCHC [1] was 35.8%. For the same compound, the MCV [1] was 58.4 fL, the Mono [1] was 4% and the Neu [1] was 25%. The PT [1] was 12.6 s, the Plat [1] was 117.6 x10_4/uL and the RBC [1] was 657 x10_4/ul. For the same compound, the Ret [1] was 6.8%, the WBC [1] was 144 x10_2/uL and the KIDNEY_L [1] was 1 g. It also gave a KIDNEY_R [1] of 0.9 g, a KIDNEY_TOTAL [1] of 1.9 g and an LIVER [1] of 10.3 g. It also gave an A/G [1] of 0.8, an ALP [1] of 1456 IU/L and an ALT [1] of 41 IU/L. It also gave an AST [1] of 72 IU/L, a BUN [1] of 31 mg/dL and a CRE [1] of 0.2 mg/dL. It also gave a Ca [1] of 11 mg/dL, a Cl [1] of 106 meq/L and a DBIL [1] of 0.01 mg/dL. For the same compound, the GLC [1] was 186 mg/dL, the IP [1] was 10.5 mg/dL and the K [1] was 4.4 meq/L. For the same compound, the LDH [1] was 71 IU/L, the Na [1] was 141 meq/L and the PL [1] was 134 mg/dL. The RALB [1] was 2.5 g/dL, the TBIL [1] was 0.07 mg/dL and the TC [1] was 78 mg/dL. For the same compound, the TG [1] was 41 mg/dL, the TP [1] was 5.5 g/dL and the gamma-GTP [1] was 2 IU/L. It also gave a TERMINAL_BW [2] of 211.7 g, an APTT [2] of 15.8 s and a Bas [2] of 0.2%. The Eos [2] was 0%, the Fbg [2] was 236 mg/dL and the Hb [2] was 14.3 g/dL. It also gave a Ht [2] of 41.1%, a Lym [2] of 54.8% and an MCH [2] of 21.2 pg. For the same compound, the MCHC [2] was 35%, the MCV [2] was 60.7 fL and the Mono [2] was 3.2%. The Neu [2] was 40.8%, the PT [2] was 12.8 s and the Plat [2] was 138.8 x10_4/uL. It also gave an RBC [2] of 676.8 x10_4/ul, a Ret [2] of 8.1% and a WBC [2] of 102.6 x10_2/uL. It also gave a KIDNEY_L [2] of 1 g, a KIDNEY_R [2] of 1 g and a KIDNEY_TOTAL [2] of 2.1 g. For the same compound, the LIVER [2] was 9.1 g, the A/G [2] was 0.9 and the ALP [2] was 1566.8 IU/L. It also gave an ALT [2] of 197 IU/L, an AST [2] of 407 IU/L and a BUN [2] of 43.8 mg/dL. The CRE [2] was 0.4 mg/dL, the Ca [2] was 11 mg/dL and the Cl [2] was 107 meq/L. For the same compound, the DBIL [2] was 0.0175 mg/dL and the GLC [2] was 196.8 mg/dL.
